We go through 33 compounds from patent US8999323B2, “Composition that can be cured by polymerisation for the production of biodegradable, biocompatible, cross-linkable polymers on the basis of polyvinyl alcohol” (Technische Universität Wien, priority 2007, dated 2015).

Holding throughout (assay type): cell-based
The nature of one series: in vitro. To be noted: mouse. An excerpt: (§1) In order to assess toxicity, osteoblast-like cells MC3T3-E1 (source: ATCC CRL-2596) were used. At first, the adherent cells were separated from each other and from the bottom of the petri dishes using pronase, and were then mixed with freshly prepared medium consisting of commercially available Minimal Essential Medium Eagle's alpha Modification (αMEM), supplemented with additional glucose from originally 1 g/l to a glucose concentration of 4.5 g/l as well as with 10% FCS (fetal calf serum), 30 μg/ml gentamycin (broad-spectrum antibiotic), L-glutamine (400 mg/l), and ascorbic acid (50 mg/l), so as to obtain a cell concentration of 40,000 cells/ml. 1 ml of this cell suspension was precharged into each well (diameter 1.9 cm) of multi-well plates.
(§2) The multi-well containing the cells was incubated for 5 days at 37° C. under a humid atmosphere with 5% CO2 together with increasing amounts of the monomers used in the examples and comparative examples. Then the cells were washed with phosphate-buffered physiological saline and frozen before the measurements, in order to break up the cells. After thawing of the cells, the amount of deoxyribonucleic acid, which is proportional to the cell count, was determined by staining with a fluorescent dye, measuring the fluorescence at 460 nm (after excitation at 360 nm) and comparing the value to a calibration curve previously prepared.

The subject of series [1] is osteoblast-like cells MC3T3-E1. The series is described as follows: in vitro.
Description: as §1, §2

The test system of series [2] is human umbilical vein endothelial cells (HUVEC). The series is described as follows: Toxicity test of monomers with endothelial cells (EZ4U). As for the experimental part: For an additional toxicity test of monomers of formula (I), human umbilical vein endothelial cells (HUVEC) were used. After trypsinating the confluent primary cultures, the cells were suspended in commercial Medium 199 with 20% fetal calf serum, put into 96-well cell culture plates in a concentration of 40,000 cells/cm^2, and cultivated until they were confluent again (37° C., 5% CO2). The cell supernatants were then lifted, and the endothelial cells were incubated for 24 hours with increasing monomer concentrations (0.1 nM to 1 mM in Medium 199 with 10% fetal calf serum). The influence on cell proliferation was examined by means of a non-radioactive cell proliferation and cytotoxicity test (EZ4U, Biomedica, Vienna). This test is based on the conversion by living cells of colorless tetrazolium salts into intensively colored formazan derivatives. The photochemically measured staining is proportional to the number of living cells in the sample. Thus, the influence of the test substances on the proliferation of the cells may be photometrically determined. Endothelial cells which had been cultivated without the addition of monomer solutions were used as a growth control.

Setting [3] is: MC3T3-E1, 5 days incubation, DNA fluorescence, values are LC50 × 10^4.
The mark [4] stands for this setting: HUVEC, 24 hours, concentration of half-maximum proliferation inhibition.

Read-outs that look alike come from different tables or passages of the source.

For the compound `C=COC(=O)N(OC)C(=O)C=C` [AMVCA, N-acryloyl N-methoxy vinyl carbamate], in the series “in vitro” (setting [3]), the CC50 was less than 0.01 mM. In addition, the “toxicity for osteoblasts compared with the acrylates of the comparative examples” value in series [1] (statement on Table 2) was “similarly toxic as the majority of the comparative examples”.
The compound `C=COC(=O)CCCCC(=O)OC=C` [AVE, adipic acid divinyl ester] had a Cmax1/2 in series [2] (setting [4]) of more than 1000 µM.
As to `C=COC(=O)OCCCCOC(=O)OC=C` [BDDVC, 1,4-butanediol bis(vinyl carbonate)], the CC50 at 5 days in the series “in vitro” (osteoblast-like MC3T3-E1 cells (ATCC CRL-2596), MC3T3-E1, 5 days incubation, DNA fluorescence, values are LC50 × 10^4, read-out: In vitro LC50 × 10^4) was more than 10 mM.
Consider `C=C(C)C(=O)OCCCCOC(=O)C(=C)C` [BDMA, 1,4-butanediol dimethacrylate, reference compound], for which the CC50 in “in vitro” (setting [3]) was less than 0.01 mM. In series [2] (setting [4]), this compound returned a Cmax1/2 of 40 µM.
Take `C=COC(=O)OCCC#N` [CEVC, 2-cyanoethyl vinyl carbonate]: in “in vitro”, the CC50 at 5 days is more than 10 mM.
Consider `C=COC(=O)OCCOCCOC(=O)OC=C` [DEGDVC, diethylene glycol bis(vinyl carbonate)], for which the CC50 at 5 days in “in vitro” is more than 10 mM.
For the compound `C=COP(=O)(OCC)OCC` [DEVP, diethyl vinyl phosphate], the CC50 in the series “in vitro” (setting [3]) was more than 10 mM.
As to `C=COC(=O)CCCCCCCCC` [DVE, decanoic acid vinyl ester], the CC50 at 5 days in “in vitro” is more than 10 mM. For the same compound, the Cmax1/2 in series [2] (setting [4]) was more than 1000 µM.
For the compound `C=COP(=O)(OC=C)OCC` [DVEP, divinyl ethyl phosphate], the CC50 in “in vitro” (setting [3]) is more than 10 mM.
On the same count and under the same terms, with `C=COC(=O)NCCOP(=O)(OCC)OCCNC(=O)OC=C` [EBVCAEP, ethyl bis[2-(vinyloxycarbonylamino)ethyl]phosphate] the figure was more than 10 mM.
Turning to `C=COC(=O)OCCOC(=O)OC=C` [EGDVC, ethylene glycol bis(vinyl carbonate)], the CC50 at 5 days in “in vitro” is more than 10 mM.
As for `C=COC(=O)OCC` [EVC, ethylvinyl carbonate], the CC50 at 5 days in “in vitro” was more than 10 mM.
Consider `C=COC(=O)OCC(COC(=O)OC=C)OC(=O)OC=C` [GTVC, glycerine tris(vinyl carbonate)], for which, in the series “in vitro”, the CC50 at 5 days is more than 10 mM.
Compound `C=CC(=O)OCCCCCCOC(=O)C=C` [HDDA, 1,6-hexanediol diacrylate, reference compound] displayed a CC50 in “in vitro” (setting [3]) of less than 0.01 mM. The compound further had a Cmax1/2 in series [2] (setting [4]) of 20 µM.
In the case of `C=COC(=O)OCCCCCCOC(=O)OC=C` [HDDVC, 1,6-hexanediol bis(vinyl carbonate)], the CC50 at 5 days in the series “in vitro” was more than 10 mM.
Take `C=COC(=O)CCCCC` [HVE, hexanoic acid vinyl ester]: the CC50 at 5 days in the series “in vitro” was more than 10 mM. This compound displayed a Cmax1/2 in series [2] (setting [4]) of more than 1000 µM.
The compound `C=COC(=O)NCCCOCCOCCCNC(=O)OC=C` [JAVM, 3,3′-ethylenedioxy bis(propylamine)divinyl carbamate] gave a CC50 in the series “in vitro” (setting [3]) of more than 10 mM.
`C=COC(=O)CCCCCCC(=O)OC=C` [KVE, octanedioic acid divinyl ester] gave a CC50 at 5 days in “in vitro” of more than 10 mM. The Cmax1/2 in series [2] (setting [4]) is more than 1000 µM.
In turn, `C=COC(=O)ON(C)C(=O)OC=C` [MHADVC, N,O-Bis(vinyloxycarbonyl)-N-methyl hydroxylamine] registered a CC50 in the series “in vitro” (setting [3]) of more than 10 mM.
Same read-out and setting: as for `C=COC(=O)NOC` [MVCA, N-methoxy vinyl carbamate], the figure is more than 10 mM; as for `C=COC(=O)N(C)CCN(C)C(=O)OC=C` [N,N′-dimethyl ethylenediamine bis(vinyl carbamate)], more than 10 mM.
In turn, `C=COC(=O)[C@H](Cc1ccccc1)NC(C)=O` [PAVE, N-acetyl phenylalanine vinyl ester] registered a CC50 at 5 days in the series “in vitro” of more than 10 mM. Further, the Cmax1/2 in series [2] (setting [4]) was more than 1000 µM.
In “in vitro”, `C=COC(=O)CCCCCCCCC(=O)OC=C` [SEVE, sebacic acid divinyl ester] gave a CC50 at 5 days of more than 10 mM. In series [2] (setting [4]), the Cmax1/2 is more than 1000 µM.
Regarding `C=COC(=O)N(C)CC(=O)OC` [SMEVCA, sarcosine methyl ester vinyl carbamate], in the series “in vitro” (setting [3]), the CC50 is more than 10 mM.
Consider `C=COC(=O)CC(C)C(C)C(CC(=O)OC=C)C(C)CC(=O)OC=C` (centres unmarked) [TFVE, trimeric fatty acid trivinyl ester], for which, in the series “in vitro”, the CC50 at 5 days is more than 10 mM.
Regarding `C=CC(=O)OCC(CC)(COC(=O)C=C)COC(=O)C=C` [TTA, trimethylolpropane triacrylate, reference compound], in “in vitro” (setting [3]), the CC50 is less than 0.01 mM. This compound registered a Cmax1/2 in series [2] (human, 24 h) of 10 µM.
As for `C=COC(=O)COCCOCCOCC(=O)OC=C` [TUVE, ω,ω′-3,6,9-trioxaundecanedioic acid divinyl ester], the CC50 at 5 days in “in vitro” was more than 10 mM.
As for `C=COP(=O)(OC=C)OC=C` [TVP, trivinyl phosphate], the CC50 in “in vitro” (setting [3]) was more than 10 mM.
For “diethylene glycol bis[O—(O′- vinylmaleinoy1)-polylactate] [DVMPL]”, in series [2] (setting [4]), the Cmax1/2 is more than 1000 µM.
In series [1], “ethoxylated (20) TTA, MG 1200 [ETA, reference compound]” returned a CC50 of 0.07 mM. The compound also returned a Cmax1/2 in series [2] (human) of 100 µM.
In series [1], “hydrated ricinus oil tris(vinyl carbonate) [HRiTVC]” had a CC50 of more than 10 mM.
“polyethylene glycol diacrylate, MG 800 [PEG-DA, reference compound]” gave a CC50 in series [1] of 0.11 mM. For the same compound, the Cmax1/2 in series [2] (human) amounted to 500 µM.
The compound “polyethylene glycol(400) bis(vinyl carbonate) [PEGDVC]” registered a CC50 in series [1] of more than 10 mM.
